From US20220088056A1, “COMBINATION FOR TREATING CANCER” (NITTO DENKO CORPORATION, priority 2018, published 2022)

Assays:
[1] = test system: hsa-miR-345-overexpressing HCT116 cells or control HCT116 cells; assay: Cell number counting in hsa-miR-345-overexpressing versus control HCT116 cells after transfection with BcL-XL inhibitor (Example 3); type: cell-based; conditions: 25 pmol; hsa-miR-345-overexpressing vs hsa-miR-345 wild-type HCT116 line; days 1 and 4 after transfection; FIG. 3
Description: The anticancer activity of a BcL-XL inhibitor was evaluated in cancer cells in which miR-345 was overexpressed by a miR-345-related molecule.
The miR-345-related molecule used was Expression plasmid for human microRNA MIR345 (MI0000825, OriGene Technologies, Inc., Compound F).
A cell line overexpressing miR-345 was established by introducing Compound E to hsa-miR-345 wild-type HCT116 cells using Lipofectamine 3000 (Invitrogen Corp.), and picking up a single clone by drug selection. In the experiment, a clone was used which was confirmed to have the increased expression of hsa-miR-345-5p by qPCR. A hsa-miR-345 wild-type HCT116 cell line as a control was established by introducing Expression plasmid pCMV-MIR Vector (PCMVMIR, OriGene Technologies, Inc., Compound G) to hsa-miR-345 wild-type HCT116 cells using Lipofectamine 3000 (Invitrogen Corp.), and picking up a single clone by drug selection.
Transfection with Compound A was performed as follows: on the day before transfection, the hsa-miR-345-overexpressing HCT116 cells or the control HCT116 cells were seeded at 0.1×10^5 cells/well to a 6-well tissue culture plastic dish. 25 pmol of Compound A was added into 250 μL of Opti-MEM I Reduced Serum Medium (Invitrogen Corp.) and gently mixed. […] On days 1 and 4 after the transfection, the cell number was counted. […]

[2] = test system: human normal dermal fibroblasts NHDF-Ad-Der Fibroblasts; assay: Influence on proliferation of normal cells, live and dead cell count with Hoechst 33342 / propidium iodide (Example 5); type: cell-based; conditions: 1.1+1.1 pmol, day 4 after transfection, compared with control (Compound C and Compound I), FIG. 5
Description: A combination of a BcL-XL inhibitor and a miR-345-related molecule was tested for the presence or absence of its influence on the proliferation of normal cells.
The BcL-XL inhibitor used was Compound A, and the miR-345-related molecule used was Compound B. Compound C was used as a negative control of the BcL-XL inhibitor, and Compound I was used as a negative control of the miR-345-related molecule.
The normal cells used were human normal dermal fibroblasts NHDF-Ad-Der Fibroblasts (Lonza Group AG, #CC-2511). The cells were cultured in Fibroblast Basal Medium (FBM™, Lonza Group AG, #CC-3131) containing FGM™-2 SingleQuots™ (Lonza Group AG, #CC-4126) under conditions of 37° C. and 5% CO2.
Transfection with the BcL-XL inhibitor and/or the miR-345-related molecule was performed as follows: on the day before transfection, NHDF was seeded at 0.15×10^4 cells/well to a 96-well tissue culture plastic dish. […] Live and dead cell numbers were counted using Celigo® Image Cytometer (Nexcelom Bioscience, LLC, #Celigo-106-0448) in which the number of cells stained with Hoechst 33342 was regarded as the total of the live and dead cell numbers and the number of cells stained with propidium iodide was regarded as the dead cell number.

Q: What does the source list for “Compound A: BcL-XL inhibitor: siRNA, sense 5'-GGUAUUGGUGAGUCGGAUCtt-3' (SEQ ID NO: 4), antisense 5'-GAUCCGACUCACCAAUACCtt-3' (SEQ ID NO: 5) (sense GGUAUUGGUGAGUCGGAUCTT; antisense GAUCCGACUCACCAAUACCTT; chemistry not given here)”?
A: cell proliferation-suppressing effect (cell number) [1]: appeared more strongly in the hsa-miR-345-overexpressing line than in the hsa-miR-345 wild-type line; suppression of the proliferation of normal cells [2]: neither the BcL-XL inhibitor alone or the miR-345-related molecule alone nor their concurrent use suppressed the proliferation of normal cells
